# US20250367185A1, “TRANSLESION SYNTHESIS POLYMERASE INHIBITORS AND USES THEREOF” (THE UNIVERSITY OF VERMONT AND STATE AGRICULTURAL COLLEGE, priority 2022, published 2025)
# Experiments:
# Assay type in all cases: cell-based
# [1] = tested on: A549-ACE2+ cells infected with SARS-COV-2; assay: Microsatellite instability (MSI) in SARS-COV-2 infected cells
# [2] = tested on: DDR, TLS, and DNA repair genes in A549-ACE2+ cells
# [3] = tested on: gH2AX in SARS-CoV-2 infected A549-ACE2+ cells; assay: gH2AX expression in SARS-CoV-2 infected cells; conditions: SARS-CoV-2 infected A549-ACE2+ cells at 48 hours
# Protocol: Next, whether other genome instability markers were also repressed by the Compound 1 treatment in SARS-COV-2 infected cells was examined. Compound 1 treatment of the A549-ACE2+ cells suppressed transcript expression of all the DDR, TLS, and DNA repair genes. Likewise, the enhanced expression of gH2AX in SARS-CoV-2 infected A549-ACE2+ cells at 48 hours was suppressed by up to 40-fold post-Compound 1 treatment.
# [4] = tested on: SARS-CoV-2 infected A549-ACE2+ cells
# SARS-COV-2 = SARS-COV-2 proliferation in cell lines, relative mRNA content
# [5] = tested on: p62 and LC3 in SARS-COV-2 infected cells
# Dengue virus = Dengue virus viral load in infected A549-ACE2+ cells; conditions: 10 μM, compared to non-treated cells, data at 24 hours, 48 hours and 5 days post-infection
# Protocol: FIG. 2 is a graph showing the relative reduction of mRNA in untreated A549-ACE2+ cells (“Not Treated”) and in cells post-treatment with Compound 1 (“JH Treated”) at 24 and 48 hours post-infection with Dengue virus.
# FIG. 3 is a graph showing the relative reduction of mRNA in untreated A549-ACE2+ cells and cells post treatment with Compound 1 (“JH Treated”) or untreated (“Not Treated”) 5 days post-infection with Dengue virus.
# Compound 1 (10 μM) was administered to A549-ACE2+ cells infected with Dengue virus and the resulting viral loads were measured (FIGS. 2 and 3). Compared to non-treated cells, those treated with Compound 1 suppressed Dengue virus by 77-fold. Data is shown 24 hours, 48 hours, and 5 days post-infection (PI).
structure (smiles),measurement,setting,value
"CC(C)CC(=O)c1c(Nc2ccc(C(=O)O)cc2Cl)[nH]c2c(Cl)ccc([N+](=O)[O-])c2c1=O [Compound 1, 3-chloro-4-((8-chloro-3-(3-methylbutanoyl)-5-nitro-4-oxo-1,4-dihydroquinolin-2-yl)amino)benzoic acid]",SARS-COV-2-dependent MSI,[1],suppress
same,"transcript expression of all the DDR, TLS, and DNA repair genes",[2],suppressed
same,suppression of enhanced gH2AX expression,[3],up to 40 fold
same,rescue of telomere instability,[4],did not rescue
same,"proliferation of SARS-COV-2, relative mRNA content in cells",SARS-COV-2; A549-ACE2+ cells,directly suppress
same,"proliferation of SARS-COV-2, relative mRNA content in cells",SARS-COV-2; Calu-3 cells,directly suppress
same,"proliferation of SARS-COV-2, relative mRNA content in cells",SARS-COV-2; Vero cells,directly suppress
same,expression of LC3,[5],significantly increases
same,expression of p62,[5],significantly increases
same,suppression of Dengue virus (viral load),Dengue virus,77 fold
